Data as given in ChEMBL document CHEMBL1201862, “PubChem BioAssay data set” (2004).
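How tested: cells in 96-well plates exposed to compound for 48 hours at five concentrations. GI50 = concentration required for 50% inhibition of growth.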 The source made the active and inactive calls. No stated cut-off is given here; in the data, active = GI50 up to about 1.1 µM and inactive = higher.

Key:
Test in all cases: NCI tumour cell line growth inhibition, 48 h
DMS-114 = test system: DMS-114
HCC 2998 = test system: HCC 2998
LOX IMVI = test system: LOX IMVI
ACHN = test system: ACHN
DLD-1 = test system: DLD-1
SF-295 = test system: SF-295
COLO 205 = test system: COLO 205
SR = test system: SR
HOP-62 = test system: HOP-62
DMS-273 = test system: DMS-273
HCT-15 = test system: HCT-15
SN12C = test system: SN12C
SK-MEL-28 = test system: SK-MEL-28
A498 = test system: A498
HL-60 = test system: HL-60
TK-10 = test system: TK-10
SW-620 = test system: SW-620
OVCAR-5 = test system: OVCAR-5
786-0 = test system: 786-0
HOP-18 = test system: HOP-18
UACC-62 = test system: UACC-62
UACC-257 = test system: UACC-257
A549 = test system: A549
UO-31 = test system: UO-31
OVCAR-8 = test system: OVCAR-8
XF498 = test system: XF498
IGROV-1 = test system: IGROV-1
SF-539 = test system: SF-539
KM-20L2 = test system: KM-20L2
NCI-H23 = test system: NCI-H23
K562 = test system: K562
NCI-H226 = test system: NCI-H226
M14 = test system: M14
KM12 = test system: KM12
EKVX = test system: EKVX
CCRF-CEM = test system: CCRF-CEM
Malme-3M = test system: Malme-3M
OVCAR-4 = test system: OVCAR-4
U-251 = test system: U-251
SK-MEL-5 = test system: SK-MEL-5
RXF 393 = test system: RXF 393
HCT-116 = test system: HCT-116
CAKI-1 = test system: CAKI-1
HOP-92 = test system: HOP-92
OVCAR-3 = test system: OVCAR-3
HT-29 = test system: HT-29
SK-MEL-2 = test system: SK-MEL-2
MOLT-4 = test system: MOLT-4
M19-MEL = test system: M19-MEL
SNB-78 = test system: SNB-78
SNB-19 = test system: SNB-19
SK-OV-3 = test system: SK-OV-3
NCI-H460 = test system: NCI-H460
SNB-75 = test system: SNB-75
LXFL 529 = test system: LXFL 529
SF-268 = test system: SF-268

Measured: GI50

Cc1cc(C)nc(NS(=O)(=O)c2ccc(Nc3c4ccccc4nc4c(C(=O)N5CCN(CCO)CC5)cccc34)cc2)n1
inactive: DMS-114 > 100 µM | HCC 2998 > 100 µM | LOX IMVI > 100 µM | ACHN > 100 µM | DLD-1 > 100 µM | SF-295 > 100 µM | COLO 205 > 100 µM | SR > 100 µM | HOP-62 > 100 µM | DMS-273 > 100 µM | SN12C > 100 µM | SK-MEL-28 > 100 µM | A498 > 100 µM | HL-60 > 100 µM | TK-10 > 100 µM | SW-620 > 100 µM | OVCAR-5 > 100 µM | 786-0 > 100 µM | HOP-18 > 100 µM | UACC-62 > 100 µM | UACC-257 > 100 µM | A549 > 100 µM | UO-31 > 100 µM | OVCAR-8 > 100 µM | XF498 > 100 µM | IGROV-1 > 100 µM | SF-539 > 100 µM | KM-20L2 > 100 µM | NCI-H23 > 100 µM | K562 > 100 µM | NCI-H226 > 100 µM | M14 > 100 µM | KM12 > 100 µM | EKVX > 100 µM | CCRF-CEM > 100 µM | Malme-3M > 100 µM | OVCAR-4 > 100 µM | U-251 > 100 µM | SK-MEL-5 > 100 µM | RXF 393 > 100 µM | HCT-116 > 100 µM | CAKI-1 > 100 µM | HOP-92 > 100 µM | OVCAR-3 > 100 µM | HT-29 > 100 µM | SK-MEL-2 > 100 µM | MOLT-4 > 100 µM | M19-MEL > 100 µM | SNB-78 > 100 µM | SNB-19 > 100 µM | SK-OV-3 > 100 µM | NCI-H460 > 100 µM | SNB-75 95.7 µM | LXFL 529 > 100 µM | SF-268 > 100 µM
> 100 µM: HCT-15
